# Measurements published in patent US5948406A, “Immunogens, antibodies formed therefrom, and coating antigens useful in a diacylhydrazine immunoassay method” (Rohm and Haas Company, priority 1997, dated 1999).
# Assays:
# [1] = tested on: ^2651 IgG (coating antibody); experiment: Direct assay (competition with 2651-HRP for immobilized ^2651 IgG coating antibody); assay type: binding, rabbit; conditions: for IC50: 2651-HRP label, absorbance at 450 nm; for Cross reactivity, RH2651: relative to RH2651; for Cross reactivity, RH5992: relative to RH5992
# Excerpt: (§1) As used herein the term "IC50 " is defined as the concentration of the inhibitor required to reduce the absorbance to one-half the absorbance measured when no inhibitor was present. This determination is accomplished by plotting the percent (%) activity remaining versus the concentration of the inhibitor where the percent (%) activity remaining is given by:
# (§2) % activity=(Ao -Ai /Ao)×100
# (§3) where Ao is the measured absorbance when no inhibitor is present and Ai is the measured absorbance at the i^th concentration of inhibitor. The percent inhibition is then given by the relationship 100-(% activity).
# (§4) Sensitivity in ng is calculated from the concentration of the inhibitor determined from regression analysis of the standard deviations of the replicate analyses of the standard concentrations as described in the equation: […]
# (§5) where S is the sensitivity in ng, Yint is the Y-intercept of the regression line from the standard deviations of the replicate analyses in absorbance units, m is the slope of the regression line in absorbance units per ng/ml and V is the volume of sample applied to the microtiter plate in ml.
# A microplate was coated with ^2651 IgG. Starting with column 1, 100 μl of 10 μg/ml ^2651 IgG were added to each well and 1:2 serial dilutions made across the plate. The plate was sealed and stored at 4° C. until ready to use. After emptying, the plate was washed with 0.01% Tween 20 in PBS and blocked with 1% BSA in PBS for about 1 hour at room temperature. After blocking, the plate was emptied and 150 μl PBS added to each well. Then 50 μl of 2651-HRP dilutions were added down the plate starting with 10 μg/ml and continuing with 1:2 dilutions down the plate. After a 1 hour room temperature incubation, the plate was washed as before and 150 μl 1-Step® Slow-TMB (peroxidase substrate from Pierce Chemical Co.) was added to each well. After one hour development, 150 μl of 1N H2 SO4 was added to stop the reaction and the absorbance of each well measured at 450 nm with the Dynatech MR5000 Microplate Reader. Controls included wells with no coating antibody and wells in which no 2651-HRP were added. A ^2651 IgG coating antibody concentration of 0.625 μg/ml and a 2561-HRP concentration of 1.25 μg/ml were determined to be the optimum concentration for use with 1-Step® Slow-TMB substrate.
# The wells of a microplate were coated with 100 μl each of 0.625 μg/ml ^2651 IgG. One row was left uncoated as a control. The plate was kept at 4° C. overnight. The following day the plate was washed with 0.01% Tween 20 polysorbate in PBS and blocked with 1% BSA in PBS for at least 30 minutes. Standard solutions of RH5992, RH2651, RH2703, and RH2485 were made from 1 mg/ml stock solutions. Standard solutions of RH0345 were prepared from a 0.1 ng/ml, 0.5 ng/ml, 1 ng/ml, 5 ng/ml, 10 ng/ml, 50 ng/ml, and 100 ng/ml. After the blocking lo solution was emptied, 150 μl of the standards were added to the appropriate wells. For the zero control 150 μl of PBS was added. After a 45 minute incubation at room temperature, 50 μl of 1.25 μg/ml 2651-HRP were added to each well and the plate agitated to mix the contents. […] After incubation for 45 minutes at room temperature, the plate was washed as before and 150 μl 2651-HRP was added to each well and the plate agitated to mix the contents. […] After incubation for 45 minutes at room temperature, the plate was washed as before and 150 μl Step 1® Slow TMB added to each well. After 2 hours at room temperature, 150 μl 1N H2 SO4 was added to each well and the absorbance read at 450 nm with the Dynatech MR5000 Microplate Reader.
# FIG. 16a illustrates a typical curve generated from the assay. The linear portion of the curve is visualized between 0.01 ng/ml and 10 ng/ml. A typical standard curve in the linear range of the assay is illustrated by FIG. 16b using inverse absorbances to generate a positive slope. The limit of detection was calculated as 0.096 ng/ml and the sensitivity calculated as 0.005 ng for RH5992.
# [2] = target: Protein A purified IgG (rabbit antibodies to diacyl hydrazines); experiment: Indirect immunoassay (inhibition of purified IgG binding to RH2703-BSA coating antigen); conditions: indirect assay; for IC50: RH2703-BSA coating antigen, absorbance at 410 nm; for Cross reactivity: IC50 of RH5992 / IC50 of analog x 100
# Excerpt: as §1, §2, §3
# The percent cross reactivity was derived by the equation: […]
# where IC50,5992 is the IC50 concentration for RH5992 as determined above and IC50,analog is the IC50 concentration of the analog, i.e., RH2703, RH2651, and RH0345.
# as §4, §5
# RH2703-BSA was used as the coating antigen. The concentration required to give a readable response (0.3-0.5 absorbance units @ 410 nm) in the presence of the minimum quantity of antigen (RH2703) was optimized in the presence of a constant amount of protein A purified IgG (10 μl of a 20 μg/ml solution, 100 ng/well) by a checkerboard type assay (see Voller et al, Bull of World Health Organization, 53, 35 (1976)). The concentration of the Protein A purified IgG had been previously optimized in the presence of a constant amount of coating antigen (RH2703-BSA, 100 μl of a 10 μg/ml solution) to give a readable response to the minimum amount of RH5992.
# Antibody concentration was optimized to be approximately 20 μg/ml (100 ng per micro well) and the coating antigen was optimized to be 25 ng/ml or 2.5 ng per micro well. When converted to a molar basis and assuming a hapten/protein binding ratio of 55, the hapten is in a three-fold molar excess of the IgG added.
# The percent inhibition for RH2703, RH2651, RH5992, RH0345 and RH2485 were determined to the protein IgG in the presence of the optimized concentration of RH2703-BSA coating antigen. Each test substance was assayed at seven concentrations ranging from no test substance 0 ng/ml to 1000 ng/ml. The assay at each concentration was replicated seven times. Antigen negative and antibody negative wells provided negative controls while KLH/anti-KLH wells were used as positive controls.
# Serial dilutions of the test substance stock solutions were made with coating buffer containing 0.1% TWEEN 20 polysorbate to give 1000 ng/ml, 100 ng/ml, 10 ng/ml, 1 ng/ml, 0.1 ng/ml, and 0.01 ng/ml assay concentrations. Coating buffer w/0.1% TWEEN 20 polysorbate was used as the 0 ng/ml assay concentration. The test substance assay concentrations (190 μl each) were incubated with 10 μl of the protein A IgG ([…]) for one hour at room temperature. After the incubation period, 100 μl of the test substance-IgG mixture was transferred to the appropriate microtiter well. The microtiter wells had been previously coated with the optimized concentration of RH2703-BSA and the excess protein binding sites were blocked with 0.3 ml of a 1% BSA solution in coating buffer. The plates were incubated for an additional hour at room temperature.
# After the second incubation the plates were washed and goat, anti-rabbit immunoglobulin conjugated to alkaline phosphatase (0.6 mg reconstituted with 1 ml 50% glycerol and subsequently diluted with 1:5000 with blocking solution Pierce Chemical Co) was added. The plates were incubated, washed and PNPP substrate added as described in Example 5. […]
Compound,IC50 [1] [ng/mL],"Cross reactivity, RH2651 [1] [%]","Cross reactivity, RH5992 [1] [%]",IC50 [2] [ng/mL],Cross reactivity [2] [%]
CC(C)(C)N(NC(=O)c1ccc(Cl)cc1)C(=O)c1ccccc1 [RH0345],16.94,6.9,21.5,6.5,9
COc1cccc(C(=O)NN(C(=O)c2cc(C)cc(C)c2)C(C)(C)C)c1C [RH2485],4.64,25,78.4,0.05,–
Cc1cc(C)cc(C(=O)N(NC(=O)c2ccc(C(=O)O)cc2)C(C)(C)C)c1 [RH2651],1.17,100,311,1.59,38
Cc1cc(C)cc(C(=O)N(NC(=O)c2ccc(CC(=O)O)cc2)C(C)(C)C)c1 [RH2703],2.10,56,173,1.13,54
CCc1ccc(C(=O)NN(C(=O)c2cc(C)cc(C)c2)C(C)(C)C)cc1 [RH5992],3.64,32,100,0.61,100
